One assay relates to Parastagonospora nodorum. The assay can be described thus: Parastagonospora nodorum (PARANO) microtiter growth inhibition assay, OD600. The following applies: 18° C., 15-18 days, read-out: control (growth inhibition by OD600). In kind it is cell-based. As for the experimental part: Potato dextrose (PDB) liquid medium (Difco) containing a […] (10^5 spores/ml) spore suspension was prepared. For the inhibition assay, each test compound was solved in dimethyl sulfoxide. 100 μl of the test media-solution was added to a 96-well microtiter plate, consequently, the same volume (100 μl) of spore suspension was added to the well making the final test concentrations and the plate was incubated at 18° C. for 15-18 days. The growth inhibition was evaluated by measuring the OD600. Percent inhibition was calculated with the below formula: I=([…])*100 Where T=treatment, C═control, and B=blank

For another assay, the system named is Phakopsora pachyrhizi. The assay can be described thus: Phakopsora pachyrhizi test in soybean, greenhouse, preventive activity. It counts as in vivo, Phakopsora pachyrhizi on soybean plants. The following applies: 24 h, spray one day before inoculation, soybean plants, read-out: control (efficacy, disease severity rating versus untreated control). As for the experimental part: Compounds were dissolved in 2% dimethyl sulfoxide/acetone and then mixed with water containing emulsifier to the calibrated spray volume of 50 mL. Each spray solution was poured into a spray bottle for further application. To test the preventive activity of the compound, healthy young Soybean plants, raised in the greenhouse, were sprayed with the active compound preparation at the stated application rate inside the spray cabinets using hollow cone nozzles. One day aftertreatment, the plants were inoculated with a conidial suspension containing 2×10^5Phakopsora […]. The inoculated plants were then kept in a greenhouse chamber at 22-24° C. temperature and 80-90% relative humidity for disease expression. A visual assessment of the compound's performance was carried out by rating the disease severity (0-100% scale) on treated plants 3, 7, 10 and 15 days after application. Efficacy (% control) of the compound was calculated by comparing the disease rating in the treatment with the one of the untreated control. The sprayed plants were also assessed for plant damage by recording symptoms like necrosis, chlorosis and stunting.

The term inhibition denotes the share of the control response that was lost under treatment. In the case of `Cc1cccc(S(C)(=O)=NC(=O)c2ccn(-c3ccc(-c4noc(C(F)(F)F)n4)cc3)c2)c1` (stereo not drawn) [Compound 24, N-(methyl(oxo)(m-tolyl)-λ^6-sulfanylidene)-1-(4-(5-(trifluoromethyl)-1,2,4-oxadiazol-3-yl)phenyl)-1H-pyrrole-3-carboxamide], the inhibition at 300 ppm in the assay on Parastagonospora nodorum was no less than 70%.

`COc1ccc(C)c(NC(=O)Cc2cn(-c3ccc(-c4noc(C(F)(F)F)n4)cc3)cn2)c1` [Compound 16, N-(5-methoxy-2-methylphenyl)-2-(1-(4-(5-(trifluoromethyl)-1,2,4-oxadiazol-3-yl)phenyl)-1H-imidazol-4-yl)acetamide]: the pest or weed control at 500 ppm in the assay on Phakopsora pachyrhizi is no more than 70%. In addition, in the assay on Parastagonospora nodorum, the inhibition at 300 ppm is no less than 70%. Regarding `Cc1ccccc1S(C)(=O)=NC(=O)c1cnn(-c2ccc(-c3noc(C(F)(F)F)n3)cc2)c1` (stereo not drawn) [Compound 19, N-(methyl(oxo)(o-tolyl)-λ^6-sulfaneylidene)-1-(4-(5-(trifluoromethyl)-1,2,4-oxadiazol-3-yl)phenyl)-1H-pyrazole-4-carboxamide], the pest or weed control at 500 ppm with Phakopsora pachyrhizi is no more than 70%. Turning to `O=C(Cc1cn(-c2ccc(-c3noc(C(F)(F)F)n3)cc2)cn1)Nc1cccc(F)c1` [Compound 10, N-(3-fluorophenyl)-2-(1-(4-(5-(trifluoromethyl)-1,2,4-oxadiazol-3-yl)phenyl)-1H-imidazol-4-yl)acetamide], in the assay with Phakopsora pachyrhizi, the pest or weed control at 500 ppm was no more than 70%. On the same count and under the same terms, the result for `O=C(Cc1cn(-c2ccc(-c3noc(C(F)(F)F)n3)cc2)cn1)NCc1ccccc1` [Compound 4, N-benzyl-2-(1-(4-(5-(trifluoromethyl)-1,2,4-oxadiazol-3-yl)phenyl)-1H-imidazol-4-yl)acetamide] reads no more than 70%; that for `O=C(Cc1cn(-c2ccc(-c3noc(C(F)(F)F)n3)cc2)cn1)NCc1ccccc1F` [Compound 7, N-(2-fluorobenzyl)-2-(1-(4-(5-(trifluoromethyl)-1,2,4-oxadiazol-3-yl)phenyl)-1H-imidazol-4-yl)acetamide], no more than 70%. With `O=C(Cc1cn(-c2ccc(-c3noc(C(F)(F)F)n3)cc2)cn1)N1CCCCC1` [Compound 11, 1-(piperidin-1-yl)-2-(1-(4-(5-(trifluoromethyl)-1,2,4-oxadiazol-3-yl)phenyl)-1H-imidazol-4-yl)ethan-1-one], the pest or weed control at 500 ppm with Phakopsora pachyrhizi was no more than 70%.

Regarding `COc1ccnc(S(C)(=O)=NC(=O)c2ccn(-c3ccc(-c4noc(C(F)(F)F)n4)cc3)c2)c1` (stereo not drawn) [Compound 29, N-((4-methoxypyridin-2-yl)(methyl)(oxo)-λ^6-sulfanylidene)-1-(4-(5-(trifluoromethyl)-1,2,4-oxadiazol-3-yl)phenyl)-1H-pyrrole-3-carboxamide], the pest or weed control at 500 ppm in the assay on Phakopsora pachyrhizi is no more than 70%. In addition, the inhibition at 300 ppm in the assay with Parastagonospora nodorum was no less than 70%. For `O=C(Cc1cn(-c2ccc(-c3noc(C(F)(F)F)n3)cc2)cn1)Nc1ccccc1` [Compound 15, N-phenyl-2-(1-(4-(5-(trifluoromethyl)-1,2,4-oxadiazol-3-yl)phenyl)-1H-imidazol-4-yl)acetamide], in that order: no more than 70% and no less than 70%. Turning to `Cc1ccc(NC(=O)Cc2cn(-c3ccc(-c4noc(C(F)(F)F)n4)cc3)cn2)cc1` [Compound 8, N-(p-tolyl)-2-(1-(4-(5-(trifluoromethyl)-1,2,4-oxadiazol-3-yl)phenyl)-1H-imidazol-4-yl)acetamide], the pest or weed control at 500 ppm in the assay with Phakopsora pachyrhizi is no more than 70%. On to `COc1ccc(NC(=O)Cc2cn(-c3ccc(-c4noc(C(F)(F)F)n4)cc3)cn2)cc1` [Compound 2, N-(4-methoxyphenyl)-2-(1-(4-(5-(trifluoromethyl)-1,2,4-oxadiazol-3-yl)phenyl)-1H-imidazol-4-yl)acetamide], for which the pest or weed control at 500 ppm with Phakopsora pachyrhizi is no more than 70%. Still for that read-out and setting: the result for `O=C(Cc1cn(-c2ccc(-c3noc(C(F)(F)F)n3)cc2)cn1)Nc1ccc(Cl)cc1` [Compound 9, N-(4-chlorophenyl)-2-(1-(4-(5-(trifluoromethyl)-1,2,4-oxadiazol-3-yl)phenyl)-1H-imidazol-4-yl)acetamide] reads no more than 70%. Same read-out and setting: the result for `COc1cccc(NC(=O)Cc2cn(-c3ccc(-c4noc(C(F)(F)F)n4)cc3)cn2)c1` [Compound 12, N-(3-methoxyphenyl)-2-(1-(4-(5-(trifluoromethyl)-1,2,4-oxadiazol-3-yl)phenyl)-1H-imidazol-4-yl)acetamide] reads no more than 70%; that for `CS(=O)(=NC(=O)c1cnn(-c2ccc(-c3noc(C(F)(F)F)n3)cc2)c1)c1cccc(F)c1` (stereo not drawn) [Compound 23, N-((3-fluorophenyl)(methyl)(oxo)-λ^6-sulfanylidene)-1-(4-(5-(trifluoromethyl)-1,2,4-oxadiazol-3-yl)phenyl)-1H-pyrazole-4-carboxamide], no more than 70%; that for `COc1ccc(S(C)(=O)=NC(=O)c2cnn(-c3ccc(-c4noc(C(F)(F)F)n4)cc3)c2)cc1` (stereo not drawn) [Compound 21, N-((4-methoxyphenyl)(methyl)(oxo)-λ^6-sulfaneylidene)-1-(4-(5-(trifluoromethyl)-1,2,4-oxadiazol-3-yl)phenyl)-1H-pyrazole-4-carboxamide], no more than 70%. On to `O=C(Cc1cn(-c2ccc(-c3noc(C(F)(F)F)n3)cc2)cn1)N1CCCC1` [Compound 3, 1-(pyrrolidin-1-yl)-2-(1-(4-(5-(trifluoromethyl)-1,2,4-oxadiazol-3-yl)phenyl)-1H-imidazol-4-yl)ethan-1-one], for which, in the assay with Phakopsora pachyrhizi, the pest or weed control at 500 ppm is no more than 70%. Also, the inhibition at 300 ppm in the assay with Parastagonospora nodorum was no less than 70%.

For the compound `CS(C)(=O)=NC(=O)c1ccn(-c2ccc(-c3noc(C(F)(F)F)n3)cc2)c1` [Compound 30, N-(dimethyl(oxo)-λ^6-sulfanylidene)-1-(4-(5-(trifluoromethyl)-1,2,4-oxadiazol-3-yl)phenyl)-1H-pyrrole-3-carboxamide], the pest or weed control at 500 ppm in the assay with Phakopsora pachyrhizi was no more than 70%. Besides, in the assay on Parastagonospora nodorum, the inhibition at 300 ppm is no less than 70%.

As for `COCCS(=O)(=NC(=O)c1ccn(-c2ccc(-c3noc(C(F)(F)F)n3)cc2)c1)c1ccccn1` (stereo not drawn) [Compound 25, N-((2-methoxyethyl)(oxo)(pyridin-2-yl)-λ^6-sulfanylidene)-1-(4-(5-(trifluoromethyl)-1,2,4-oxadiazol-3-yl)phenyl)-1H-pyrrole-3-carboxamide], in the assay with Phakopsora pachyrhizi, the pest or weed control at 500 ppm was no more than 70%.

On to `O=C(Cc1cn(-c2ccc(-c3noc(C(F)(F)F)n3)cc2)cn1)Nc1ccccc1Br` [Compound 14, N-(2-bromophenyl)-2-(1-(4-(5-(trifluoromethyl)-1,2,4-oxadiazol-3-yl)phenyl)-1H-imidazol-4-yl)acetamide], for which, in the assay with Phakopsora pachyrhizi, the pest or weed control at 500 ppm is no more than 70%. In the case of `COc1cc(F)ccc1NC(=O)Cc1cn(-c2ccc(-c3noc(C(F)(F)F)n3)cc2)cn1` [Compound 17, N-(4-fluoro-2-methoxyphenyl)-2-(1-(4-(5-(trifluoromethyl)-1,2,4-oxadiazol-3-yl)phenyl)-1H-imidazol-4-yl)acetamide], the pest or weed control at 500 ppm in the assay with Phakopsora pachyrhizi is no more than 70%. In addition, the inhibition at 300 ppm in the assay on Parastagonospora nodorum is no less than 70%. `O=C(Cc1cn(-c2ccc(-c3noc(C(F)(F)F)n3)cc2)cn1)Nc1cccnc1` [Compound 13, N-(pyridin-3-yl)-2-(1-(4-(5-(trifluoromethyl)-1,2,4-oxadiazol-3-yl)phenyl)-1H-imidazol-4-yl)acetamide]: the pest or weed control at 500 ppm in the assay on Phakopsora pachyrhizi was no more than 70%. The same measure, in the same setting: the result for `CS(=O)(=NC(=O)c1ccn(-c2ccc(-c3noc(C(F)(F)F)n3)cc2)c1)c1ccc(F)cc1` (stereo not drawn) [Compound 27, N-((4-fluorophenyl)(methyl)(oxo)-λ^6-sulfanylidene)-1-(4-(5-(trifluoromethyl)-1,2,4-oxadiazol-3-yl)phenyl)-1H-pyrrole-3-carboxamide] reads no more than 70%; that for `CCOC(=O)Cc1cn(-c2ccc(-c3noc(C(F)(F)F)n3)cc2)cn1` [Compound 1, Ethyl 2-(1-(4-(5-(trifluoromethyl)-1,2,4-oxadiazol-3-yl)phenyl)-1H-imidazol-4-yl)acetate], no more than 70%. Still for that read-out and setting: the result for `COc1ccc(CNC(=O)Cc2cn(-c3ccc(-c4noc(C(F)(F)F)n4)cc3)cn2)cc1` [Compound 5, N-(4-methoxybenzyl)-2-(1-(4-(5-(trifluoromethyl)-1,2,4-oxadiazol-3-yl)phenyl)-1H-imidazol-4-yl)acetamide] reads no more than 70%. With `FC(F)(F)c1nc(-c2ccc(-n3cnc(CSc4ccccc4)c3)cc2)no1` [Compound 43, 3-(4-(4-((phenylthio)methyl)-1H-imidazol-1-yl)phenyl)-5-(trifluoromethyl)-1,2,4-oxadiazole], the inhibition at 300 ppm in the assay with Parastagonospora nodorum is no less than 70%. Take `COc1ccccc1S(C)(=O)=NC(=O)c1cnn(-c2ccc(-c3noc(C(F)(F)F)n3)cc2)c1` (stereo not drawn) [Compound 20, N-((2-methoxyphenyl)(methyl)(oxo)-λ^6-sulfaneylidene)-1-(4-(5-(trifluoromethyl)-1,2,4-oxadiazol-3-yl)phenyl)-1H-pyrazole-4-carboxamide]: the pest or weed control at 500 ppm with Phakopsora pachyrhizi was no more than 70%. On the same count and under the same terms, the result for `CS(=O)(=NC(=O)c1cnn(-c2ccc(-c3noc(C(F)(F)F)n3)cc2)c1)c1ccccc1` (stereo not drawn) [Compound 22, N-(methyl(oxo)(phenyl)-λ^6-sulfaneylidene)-1-(4-(5-(trifluoromethyl)-1,2,4-oxadiazol-3-yl)phenyl)-1H-pyrazole-4-carboxamide] reads no more than 70%.

For the origin of these results see patent US20220348567A1, “NOVEL OXADIAZOLE COMPOUNDS CONTAINING 5- MEMBERED HETEROAROMATIC RING FOR CONTROLLING OR PREVENTING PHYTOPATHOGENIC FUNGI” (PI INDUSTRIES LTD., priority 2019, published 2022).
